From patent US20240270762A1, “PENICILLIN-BINDING PROTEIN INHIBITORS” (priority 2021, published 2024)
Values after ≈ are worked out from the molar mass of the structure shown.

How the values were obtained:
[1] = molecular target: T1, PBP3 from Acinetobacter baumannii (ATCC 19606) (Acinetobacter baumannii, UniProt A0ABX6CK25); test: Bocillin-FL fluorescence polarization competition binding, A. baumannii PBP3; details: fluorescence polarization competition binding assay using Bocillin-FL; read-out: A. baumannii PBP3 Potency
T1 sequence (A0ABX6CK25 64-610): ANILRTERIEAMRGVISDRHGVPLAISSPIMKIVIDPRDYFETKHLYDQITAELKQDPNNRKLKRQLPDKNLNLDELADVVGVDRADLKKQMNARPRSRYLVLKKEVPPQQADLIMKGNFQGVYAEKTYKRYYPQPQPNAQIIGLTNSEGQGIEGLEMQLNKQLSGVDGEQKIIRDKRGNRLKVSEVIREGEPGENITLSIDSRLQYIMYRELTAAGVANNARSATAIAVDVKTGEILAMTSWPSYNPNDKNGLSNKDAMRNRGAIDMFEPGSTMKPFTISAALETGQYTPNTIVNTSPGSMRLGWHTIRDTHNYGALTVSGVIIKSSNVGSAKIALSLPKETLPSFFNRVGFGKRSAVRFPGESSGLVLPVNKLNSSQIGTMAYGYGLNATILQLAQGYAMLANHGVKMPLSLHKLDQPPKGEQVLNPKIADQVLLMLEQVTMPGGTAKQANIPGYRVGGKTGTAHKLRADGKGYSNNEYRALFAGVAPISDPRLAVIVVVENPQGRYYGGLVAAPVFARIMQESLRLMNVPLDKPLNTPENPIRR
Outline: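 Purified PBPs pre-incubated with inhibitor (E. coli PBP3 1.5 μM, 30 min; P. aeruginosa PBP3 0.75 μM, A. baumannii PBP1a 1 μM and PBP3 0.2 μM, 15 min), then Bocillin-FL 0.1 μM (0.05 μM for PBP1a) added; FP read up to 60 min. EC50 = concentration halving bound Bocillin-FL.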

[2] = tested on: P. aeruginosa CDC-0095; test: microbe, parasite or virus in culture; format: cell-based; details: Pseudomonas aeruginosa, CDC0095, read-out: Minimum inhibitory concentration, P. aeruginosa CDC-0095
[3] = tested on: A. baumannii 1258916; test: microbe, parasite or virus in culture; format: cell-based, Acinetobacter baumannii; details: Acinetobacter baumannii, 1258916, read-out: MIC, A. baumannii 1258916
[4] = tested on: A. baumannii CDC-0036; test: microbe, parasite or virus in culture; format: cell-based; details: Acinetobacter baumannii, CDC0036, read-out: MIC, A. baumannii CDC-0036
[5] = tested on: N. gonorrhoeae FA1090; test: Liquid broth MIC in Fastidious broth; details: Neisseria gonorrhoeae, FA1090, read-out: Minimum Inhibitory Concentration, FA 1090
[6] = tested on: N. gonorrhoeae WHO G; test: Liquid broth MIC in Fastidious broth; details: Neisseria gonorrhoeae, read-out: Minimum Inhibitory Concentration, WHO G
Method: Additional antibacterial testing of the series was performed in 8 reference strains of N. gonorrhoeae (ATCC 49226, FA1090, MS 11, WHO G, WHO L, WHO M, WHO K, WHO X, WHO Z, WHO Q, CDC-0197). ATCC 49226, FA1090, MS11, WHO G, WHO L, and WHO M produce wild type or wild-type like PBP2. WHO K, WHO X, WHO Z, WHO Q, and CDC-0197 produce mosaic PBP2. Liquid broth-based assays were used for antibacterial testing of PBP inhibitors in Neisseria gonorrhoeae. Briefly, cryo-preserved bacterial cultures of clinical strains were streaked for isolation on Chocolate Agar (72 g/L (2×) GC Agar Base (BD #228950) and 2% (2×) Hemoglobin was autoclaved at 121° C. for 20 minutes to sterilize. Once cooled to ˜50° C. the 2×GC Agar Base and 2× Hemoglobin solutions are combined and 1% IsoVitaleX Enrichment (BD #211876) was added to the solution). Strains were incubated at 36° C. and 5% CO2 to allow growth of colonies, 24 hours before inoculum preparation. 2-fold serial dilutions of test compounds were conducted in a 96 well plate with a final volume of 75 μL per well at 2-fold the final desired concentration in Fastidious broth (Remel #R07664). For preparation of assay inoculum, a direct suspension was prepared by aseptically swabbing 10-15 colonies from agar plates into culture tubes containing 2 mL of fresh sterile saline. After the dilution plates were set up, direct suspensions were then diluted in a cuvette containing sterile saline and the optical density was measured at 600 nm. Inocula were diluted such that 75 μL of this culture in Fastidious broth results in a starting bacterial concentration of 5×10^5 CFU/mL when added to the dilution plates. The plates were incubated for ˜24 hours at 36° C. and 5% CO2.

[7] = tested on: N. gonorrhoeae WHO M; test: Liquid broth MIC in Fastidious broth; details: Neisseria gonorrhoeae, read-out: Minimum Inhibitory Concentration, WHO M
[8] = tested on: N. gonorrhoeae WHO K; test: Liquid broth MIC in Fastidious broth; details: Neisseria gonorrhoeae, read-out: Minimum Inhibitory Concentration, WHO K
[9] = tested on: N. gonorrhoeae WHO X; test: Liquid broth MIC in Fastidious broth; details: Neisseria gonorrhoeae, read-out: Minimum Inhibitory Concentration, WHO X
[10] = tested on: N. gonorrhoeae WHO Z; test: Liquid broth MIC in Fastidious broth; details: Neisseria gonorrhoeae, read-out: Minimum Inhibitory Concentration, WHO Z
[11] = tested on: N. gonorrhoeae WHO Q; test: Liquid broth MIC in Fastidious broth; details: Neisseria gonorrhoeae, read-out: Minimum Inhibitory Concentration, WHO Q

O=C(NCCCS(=O)(=O)N1CCN(C(=O)NC(C(=O)N[C@H]2Cc3ccc(F)c(C(=O)O)c3OB2O)c2cc(F)c(O)c(O)c2Cl)C1=O)Nc1ccc(O)cc1 (stereo partly drawn) [Example 276, (3R)-3-(2-(2-chloro-5-fluoro-3,4-dihydroxyphenyl)-2-(3-((3-(3-(4-hydroxyphenyl)ureido)propyl)sulfonyl)-2-oxoimidazolidine-1-carboxamido)acetamido)-7-fluoro-2-hydroxy-3,4-dihydro-2H-benzo[e][1,2]oxaborinine-8-carboxylic acid]
IC50 [1]: < 10 µM
MIC [2]: 8 to 16 µg/mL (≈ 9.87 to 19.7 µM)
MIC [3]: < 1 µg/mL
MIC [4]: 2 to 4 µg/mL (≈ 2.47 to 4.93 µM)
MIC [5]: 1 to 2 µg/mL (≈ 1.23 to 2.47 µM)
MIC [6]: 16 to 32 µg/mL (≈ 19.7 to 39.5 µM)
MIC [7]: 4 to 8 µg/mL (≈ 4.93 to 9.87 µM)
MIC [8]: > 64 µg/mL
MIC [9]: > 64 µg/mL
MIC [10]: 4 to 8 µg/mL (≈ 4.93 to 9.87 µM)
MIC [11]: 16 to 32 µg/mL (≈ 19.7 to 39.5 µM)

O=C(NCCN1CCN(C(=O)NC(C(=O)N[C@H]2Cc3ccc(F)c(C(=O)O)c3OB2O)c2cc(F)c(O)c(O)c2Cl)C1=O)Nc1cccnc1 (stereo partly drawn) [Example 251, (3R)-3-(2-(2-chloro-5-fluoro-3,4-dihydroxyphenyl)-2-(2-oxo-3-(2-(3-(pyridin-3-yl)ureido)ethyl)imidazolidine-1-carboxamido)acetamido)-7-fluoro-2-hydroxy-3,4-dihydro-2H-benzo[e][1,2]oxaborinine-8-carboxylic acid]
IC50 [1]: < 10 µM
MIC [2]: 8 to 16 µg/mL (≈ 11.1 to 22.3 µM)
MIC [3]: < 1 µg/mL
MIC [4]: 2 to 4 µg/mL (≈ 2.79 to 5.57 µM)
MIC [5]: 4 to 8 µg/mL (≈ 5.57 to 11.1 µM)
MIC [6]: 16 to 32 µg/mL (≈ 22.3 to 44.6 µM)
MIC [7]: 16 to 32 µg/mL (≈ 22.3 to 44.6 µM)
MIC [8]: > 64 µg/mL
MIC [9]: > 64 µg/mL
MIC [10]: 16 to 32 µg/mL (≈ 22.3 to 44.6 µM)
MIC [11]: > 64 µg/mL

O=C(NCCCN1CCN(C(=O)N[C@H](C(=O)N[C@H]2Cc3ccc(F)c(C(=O)O)c3OB2O)c2cc(F)c(O)c(O)c2Cl)C1=O)c1cccc(O)c1 [Example 254, (R)-3-((S)-2-(2-chloro-5-fluoro-3,4-dihydroxyphenyl)-2-(3-(3-(3-hydroxybenzamido)propyl)-2-oxoimidazolidine-1-carboxamido)acetamido)-7-fluoro-2-hydroxy-3,4-dihydro-2H-benzo[e][1,2]oxaborinine-8-carboxylic acid]
IC50 [1]: 10 to 50 µM
MIC [2]: > 128 µg/mL
MIC [3]: > 128 µg/mL
MIC [4]: > 128 µg/mL
MIC [5]: > 64 µg/mL
MIC [6]: > 64 µg/mL
MIC [7]: > 64 µg/mL
MIC [8]: > 64 µg/mL
MIC [9]: > 64 µg/mL
MIC [10]: > 64 µg/mL
MIC [11]: > 64 µg/mL

O=C(O)c1c(F)ccc2c1OB(O)[C@@H](NC(=O)C(NC(=O)N1CCN(S(=O)(=O)CCNC(=O)[C@@H]3CCCN3)C1=O)c1cc(F)c(O)c(O)c1Cl)C2 (stereo partly drawn) [Example 265, (3R)-3-(2-(2-chloro-5-fluoro-3,4-dihydroxyphenyl)-2-(2-oxo-3-((2-((S)-pyrrolidine-2-carboxamido)ethyl)sulfonyl)imidazolidine-1-carboxamido)acetamido)-7-fluoro-2-hydroxy-3,4-dihydro-2H-benzo[e][1,2]oxaborinine-8-carboxylic acid]
IC50 [1]: < 10 µM
MIC [2]: 2 to 4 µg/mL (≈ 2.64 to 5.27 µM)
MIC [3]: 2 to 4 µg/mL (≈ 2.64 to 5.27 µM)
MIC [4]: 2 to 4 µg/mL (≈ 2.64 to 5.27 µM)
MIC [5]: 4 to 8 µg/mL (≈ 5.27 to 10.5 µM)
MIC [6]: 16 to 32 µg/mL (≈ 21.1 to 42.2 µM)
MIC [7]: 4 to 8 µg/mL (≈ 5.27 to 10.5 µM)
MIC [8]: > 64 µg/mL
MIC [9]: > 64 µg/mL
MIC [10]: 4 to 8 µg/mL (≈ 5.27 to 10.5 µM)
MIC [11]: 16 to 32 µg/mL (≈ 21.1 to 42.2 µM)
